Assays:
[1] = system: cell hyperproliferation in hairless rats; assay: Model of desquamation in hairless rats: corneous material extracted; type: in vivo
Method: The activity of compound A on cell hyperproliferation in hairless rats was evaluated using the model of desquamation in hairless rats described in the publication: Bräutigam, M., Hübner, H., Rach, P., Thieroff-Ekerdi, R. “Effects of Calcipotriol (MC 903) and Calcitriol after Topical Application on the Skin of Hairless Rats”, Skin Pharmacol 1992; 5:87-92.
(§1) To do this Calcitriol was used as the reference product at 0.01% and compound A was used as the test product at 1% and 0.1% (100 μg/cm^2 and 10 μg/cm^2, respectively). A Control Group was included, administered only with the vehicle (absolute ethanol).
The animals were randomly distributed into the following experimental groups:
(§2) The treatments were administered topically, once a day for 10 days (100 μg/side/animal). The animals were weighed on a daily basis throughout the study and the grade of erythema was evaluated (0=Absence of erythema, 1=Low grade erythema, 3=High grade erythema). On the last day of the study, day 11, the amount of corneous material extracted from the epidermis of the animals was evaluated.

[2] = Assessment of erythema in the hairless rat study; type: in vivo, hairless rats; settings: Calcitriol 0.01% topical once a day, 0=absence, 1=low grade, 3=high grade
Method: as §1, §2

[3] = Body weight in the hairless rat study; type: in vivo, hairless rats; settings: Calcitriol 0.01% topical once a day
Method: as §1, §2

[4] = Signs of toxicity and deaths in the hairless rat study; type: in vivo
Method: A Control Group was included, administered only with the vehicle (absolute ethanol).
as §2

[5] = Calcitriol 0.01% (1 μg/cm^2) topical once a day for 10 days, day 11

## C=C1/C(=C\C=C2/CCC[C@]3(C)[C@@H]([C@H](C)CCCC(C)(C)O)CC[C@@H]23)C[C@@H](O)C[C@@H]1O [Calcitriol, 1-alpha,25-dihydroxycholecalciferol, reference compound]
[1]; [5]
  amount of corneous material extracted, total sum of the right and left flanks, Portal No, 1: 13.5 ± 4.89 mg
  amount of corneous material extracted, total sum of the right and left flanks, Portal No, 2: 7.7 ± 1.43 mg
  amount of corneous material extracted, total sum of the right and left flanks, Portal No, 3: 5.9 ± 0.94 mg
  amount of corneous material extracted, total sum of the right and left flanks, Portal No, 4: 4.5 ± 0.60 mg
  amount of corneous material extracted, total sum of the right and left flanks, Portal No, 5: 3.7 ± 0.35 mg
  amount of corneous material extracted, total sum of the right and left flanks, Portal No, 6: 21.7 ± 2.07 mg
[1]; Calcitriol 0.01%, topical 0.2 ml/animal
  amount of corneous material extracted compared with the other experimental groups: clearly greater than that extracted in the other experimental groups
[2]; Baseline
  Assessment of erythema (mean grade): 0.0 ± 0.00
[2]; Day 2
  Assessment of erythema (mean grade): 0.0 ± 0.00
[2]; Day 3
  Assessment of erythema (mean grade): 0.0 ± 0.00
[2]; Day 4
  Assessment of erythema (mean grade): 0.0 ± 0.00
[2]; Day 5
  Assessment of erythema (mean grade): 0.0 ± 0.00
[2]; Day 6
  Assessment of erythema (mean grade): 0.0 ± 0.00
[2]; Day 7
  Assessment of erythema (mean grade): 0.0 ± 0.00
[2]; Day 8
  Assessment of erythema (mean grade): 1.0 ± 0.00
[2]; Day 9
  Assessment of erythema (mean grade): 1.5 ± 0.22
[2]; Day 10
  Assessment of erythema (mean grade): 2.0 ± 0.20
[2]; Day 11
  Assessment of erythema (mean grade): 2.0 ± 0.00
[3]; Baseline
  Body weight: 0.0 ± 0.00 g
[3]; Day 2
  Body weight: 0.0 ± 0.00 g
[3]; Day 3
  Body weight: 0.0 ± 0.00 g
[3]; Day 4
  Body weight: 0.0 ± 0.00 g
[3]; Day 5
  Body weight: 0.0 ± 0.00 g
[3]; Day 6
  Body weight: 0.0 ± 0.00 g
[3]; Day 7
  Body weight: 0.0 ± 0.00 g
[3]; Day 8
  Body weight: 1.0 ± 0.00 g
[3]; Day 9
  Body weight: 1.5 ± 0.22 g
[3]; Day 10
  Body weight: 2.0 ± 0.20 g
[3]; Day 11
  Body weight: 2.0 ± 0.00 g
[4]; Calcitriol 0.01% group (n 6), repeated administration
  animals that died before the end of the study: Three
[4]; rat, in vivo
  signs of toxicity: clear signs of toxicity were detected
